Assay results: PMC6222292 (Computational and Structural Biotechnology Journal, 2018)

Target: T1, soluble epoxide hydrolase (sEH) (Homo sapiens, UniProt P34913)
T1 sequence (P34913 1-555): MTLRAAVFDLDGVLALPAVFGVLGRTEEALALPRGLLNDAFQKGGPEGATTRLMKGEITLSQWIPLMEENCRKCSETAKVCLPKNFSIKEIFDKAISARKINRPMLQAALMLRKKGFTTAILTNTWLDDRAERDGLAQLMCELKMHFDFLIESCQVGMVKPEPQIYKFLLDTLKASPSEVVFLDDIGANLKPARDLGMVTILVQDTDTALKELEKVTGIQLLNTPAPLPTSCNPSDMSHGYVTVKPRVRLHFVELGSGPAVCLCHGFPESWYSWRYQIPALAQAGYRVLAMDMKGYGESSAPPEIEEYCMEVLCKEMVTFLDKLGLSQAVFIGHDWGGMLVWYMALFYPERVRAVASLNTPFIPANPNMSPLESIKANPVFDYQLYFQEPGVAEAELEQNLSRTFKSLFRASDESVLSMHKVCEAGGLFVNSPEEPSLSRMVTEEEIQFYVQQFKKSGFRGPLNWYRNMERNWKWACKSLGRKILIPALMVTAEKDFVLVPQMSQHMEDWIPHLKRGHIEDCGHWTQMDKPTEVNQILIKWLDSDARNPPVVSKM
Assay: fluorescent PHOME hydrolysis assay
Format: biochemical

IC50 [µM] | Compound
9 ± 0.8 | O=C(/C=C/c1ccc(O)cc1)NCCc1ccc(O)cc1 [compound 1, N-trans-coumaroyltyramine]
10.4 ± 1.1 | COc1cc(/C=C/C(=O)NCCc2ccc(O)cc2)ccc1O [compound 2, N-trans-feruloyltyramine]
